Test results published in PubChem BioAssay (NCI).
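These data come from cells grown in 96-well plates and exposed to compound for 48 hours at five concentrations. TGI: concentration producing complete growth inhibition.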

Legend:
Experiment in all cases: NCI-60 cell line screen, 48 h
SN12C renal = test system: SN12C renal
PC-3 prostate = test system: PC-3 prostate
SK-MEL-28 melanoma = test system: SK-MEL-28 melanoma
HCC-2998 colon = test system: HCC-2998 colon
MALME-3M melanoma = test system: MALME-3M melanoma
A498 renal = test system: A498 renal
HOP-92 NSCLC = test system: HOP-92 NSCLC
TK-10 renal = test system: TK-10 renal
LOX IMVI melanoma = test system: LOX IMVI melanoma
CAKI-1 renal = test system: CAKI-1 renal
RPMI-8226 leukemia = test system: RPMI-8226 leukemia

SMILES | TGI (SN12C renal) | TGI (PC-3 prostate) | TGI (SK-MEL-28 melanoma) | TGI (HCC-2998 colon) | TGI (MALME-3M melanoma) | TGI (A498 renal) | TGI (HOP-92 NSCLC) | TGI (TK-10 renal) | TGI (LOX IMVI melanoma) | TGI (CAKI-1 renal) | TGI (RPMI-8226 leukemia)
COc1ccc(COCC[C@H](C)OC2OC(CO[Si](C)(C)C(C)(C)C)C(O)C(O)C2O)cc1 (stereo partly drawn) | > 100 µM | > 100 µM | > 100 µM | > 100 µM | > 100 µM | > 100 µM | > 100 µM | > 100 µM | > 100 µM | > 100 µM | > 100 µM
COC1(OC)CCN(Cc2ccccc2)C1=O | 22.1 µM | 27.8 µM | 23.3 µM | 34 µM | > 100 µM | 44 µM | 23.4 µM | 29.7 µM | 16.6 µM | 13 µM | 42.8 µM
COc1cc(-c2nc(N)c(C#N)c3c2CCS(=O)(=O)c2ccc(C)cc2-3)cc(OC)c1OC | > 100 µM | > 100 µM | > 100 µM | > 100 µM | > 100 µM | 69.8 µM | 54.8 µM | 70 µM | > 100 µM | > 100 µM | > 100 µM
Nc1ncnc2c1ccn2CC#CCO | > 100 µM | > 100 µM | > 100 µM | > 100 µM | > 100 µM | > 100 µM | > 100 µM | > 100 µM | > 100 µM | > 100 µM | > 100 µM
Cc1cn(C2CC(O)C(Cn3nncc3Cn3cnc4c(N)ncnc43)O2)c(=O)[nH]c1=O (stereo not drawn) | > 100 µM | > 100 µM | > 100 µM | > 100 µM | > 100 µM | > 100 µM | > 100 µM | > 100 µM | > 100 µM | > 100 µM | > 100 µM
Cn1c2ncccc2n2c(=O)cc(O)cc12 | – | > 100 µM | > 100 µM | > 100 µM | > 100 µM | > 100 µM | 81.4 µM | > 100 µM | > 100 µM | > 100 µM | > 100 µM
CC1(C)CC(=O)c2c(-c3ccc(Cl)cc3)c(C#N)c(=S)n(C3OC(CO)C(O)C(O)C3O)c2C1 (stereo not drawn) | > 100 µM | 52.1 µM | > 100 µM | > 100 µM | > 100 µM | > 100 µM | 96.7 µM | > 100 µM | 49.4 µM | > 100 µM | > 100 µM
NC(=O)C1=C(O)[C@@]2(O)C(=O)C3=C(O)c4c(O)cccc4CC3C[C@H]2CC1=O (stereo partly drawn) | 14.5 µM | 9.71 µM | 22.8 µM | 16.1 µM | 5.23 µM | 12.9 µM | 6.05 µM | 43.7 µM | 10.5 µM | 26.7 µM | 6.12 µM
O=C(c1ccccc1)c1ccc(N2C(=O)/C(=C/c3cccc(Oc4ccccc4)c3)N=C2c2ccccc2)c(N2C(=O)/C(=C/c3cccc(Oc4ccccc4)c3)N=C2c2ccccc2)c1 | > 100 µM | > 100 µM | > 100 µM | 48.8 µM | > 100 µM | > 100 µM | > 100 µM | 79.4 µM | > 100 µM | > 100 µM | 96.4 µM
CC1(C)N=C(C(N)=O)c2ncn(Cc3ccccc3)c2N1 | > 100 µM | > 100 µM | > 100 µM | > 100 µM | > 100 µM | > 100 µM | > 100 µM | > 100 µM | > 100 µM | > 100 µM | > 100 µM
COc1ccc2nc3ccc(OC)cc3c(S(=O)Cc3ccccc3)c2c1 (stereo not drawn) | 21.3 µM | 27.2 µM | 27.2 µM | 38.4 µM | 7.87 µM | 38.9 µM | > 37.3 µM | 19.4 µM | 6.66 µM | 25.6 µM | 6.6 µM
CC/C(Cl)=N\OC(=O)Nc1ccc(F)c(Cl)c1 | 40.2 µM | 29.6 µM | 30.1 µM | 35.3 µM | 9.29 µM | 30.8 µM | 9.41 µM | 31.3 µM | 9.68 µM | 9.55 µM | > 100 µM
CCOC(=O)c1c2ccccc2n2c(=O)n(-c3ccc(OC)cc3)nnc12 | > 100 µM | > 66.1 µM | > 100 µM | > 100 µM | > 100 µM | > 100 µM | > 65.7 µM | > 84.5 µM | > 100 µM | > 79.9 µM | > 91.1 µM
CCOC(=O)N1c2ccccc2N(C(=O)OCC)C1CC(=O)/C=C/c1ccccc1 | 14.4 µM | 19.8 µM | 28 µM | 10.6 µM | 18.9 µM | 10.6 µM | 6.16 µM | 14.4 µM | 7.06 µM | 12.6 µM | 26.6 µM
